Results taken from PubChem BioAssay (NCI).
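Test compounds were applied to cells in 96-well plates for 48 hours at 5 doses. GI50: concentration for 50% inhibition of growth. TGI is the concentration that stops growth completely.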

Columns and labels:
Experiment in all cases: NCI tumour cell line growth inhibition, 48 h
SNB-19 CNS = test system: SNB-19 CNS
HCC-2998 colon = test system: HCC-2998 colon
NCI-H460 lung = test system: NCI-H460 lung
HT29 colon = test system: HT29 colon
U251 CNS = test system: U251 CNS
RPMI-8226 leukemia = test system: RPMI-8226 leukemia
SF-295 CNS = test system: SF-295 CNS
LOX IMVI melanoma = test system: LOX IMVI melanoma
COLO 205 colon = test system: COLO 205 colon
TK-10 renal = test system: TK-10 renal

Nc1cccc2cc(S(=O)(=O)Nc3ccc(C(=O)O)cc3)ccc12 gave a TGI (SNB-19 CNS) of over 100 µM, a TGI (HCC-2998 colon) of over 100 µM and a TGI (NCI-H460 lung) of over 100 µM. It also gave a TGI (HT29 colon) of over 100 µM, a TGI (U251 CNS) of over 100 µM and a TGI (RPMI-8226 leukemia) of over 100 µM. For the same molecule, the TGI (SF-295 CNS) was over 100 µM, the TGI (LOX IMVI melanoma) was over 100 µM and the TGI (COLO 205 colon) was over 100 µM. For the same molecule, the TGI (TK-10 renal) was over 100 µM.
For CC[n+]1c(/C=C/c2ccc(N(CCCl)CCCl)cc2)ccc2cc(Br)ccc21, the TGI (SNB-19 CNS) was 2.57 µM, the TGI (HCC-2998 colon) was 3.13 µM and the TGI (NCI-H460 lung) was 11.4 µM. It also gave a GI50 (HT29 colon) of 548 µM, a TGI (U251 CNS) of 4.11 µM and a GI50 (RPMI-8226 leukemia) of 162 µM. The GI50 (SF-295 CNS) was 1150 µM, the TGI (LOX IMVI melanoma) was 2.87 µM and the TGI (COLO 205 colon) was 128 µM. The GI50 (TK-10 renal) was 652 µM.
In the case of CCN(CC)CCSc1nc2c([N+](=O)[O-])cccc2[nH]1, the TGI (HCC-2998 colon) is reported as over 100 µM, the TGI (HT29 colon) is reported as over 100 µM and the TGI (RPMI-8226 leukemia) is reported as over 100 µM. The TGI (LOX IMVI melanoma) was over 100 µM, the TGI (COLO 205 colon) was over 100 µM and the TGI (TK-10 renal) was over 100 µM.
CNC1=C(C)C(=O)C2=C(C1=O)C(COC(N)=O)C1(OC)C3NC3CN21 (stereo unspecified) was tested, and the TGI (HCC-2998 colon) was 1.82 µM, the TGI (NCI-H460 lung) was 0.251 µM and the TGI (HT29 colon) was 4.01 µM. It also gave a TGI (U251 CNS) of 15 µM, a TGI (RPMI-8226 leukemia) of 66.7 µM and a TGI (SF-295 CNS) of 10.5 µM. It also gave a TGI (LOX IMVI melanoma) of 1.41 µM, a TGI (COLO 205 colon) of 1.35 µM and a TGI (TK-10 renal) of 94.1 µM.
In the case of N=C1SCCS1, the TGI (SNB-19 CNS) is reported as over 100 µM, the TGI (HCC-2998 colon) is reported as over 100 µM and the TGI (NCI-H460 lung) is reported as over 100 µM. It also gave a TGI (HT29 colon) of over 100 µM, a TGI (U251 CNS) of over 100 µM and a TGI (RPMI-8226 leukemia) of over 100 µM. It also gave a TGI (SF-295 CNS) of over 100 µM, a TGI (LOX IMVI melanoma) of over 100 µM and a TGI (COLO 205 colon) of over 100 µM. It also gave a TGI (TK-10 renal) of over 100 µM.
Molecule O=C(Nc1ccc(-n2cc(-c3ccncc3)c(-c3ccc(O)c(Cl)c3)n2)cc1)c1ccc(Cl)c(Cl)c1 has a GI50 (SNB-19 CNS) of 2.67 µM, a TGI (SNB-19 CNS) of over 32.5 µM and a GI50 (HCC-2998 colon) of 2.03 µM. It also gave a TGI (HCC-2998 colon) of over 32.5 µM, a GI50 (NCI-H460 lung) of 1.58 µM and a TGI (NCI-H460 lung) of over 32.5 µM. For the same molecule, the GI50 (U251 CNS) was 0.693 µM, the TGI (U251 CNS) was over 32.5 µM and the GI50 (RPMI-8226 leukemia) was 0.537 µM. It also gave a TGI (RPMI-8226 leukemia) of 1.44 µM, a GI50 (SF-295 CNS) of 0.833 µM and a TGI (SF-295 CNS) of 2.26 µM. It also gave a GI50 (LOX IMVI melanoma) of 0.779 µM, a TGI (LOX IMVI melanoma) of 2.88 µM and a GI50 (COLO 205 colon) of over 32.5 µM. It also gave a TGI (COLO 205 colon) of over 32.5 µM, a GI50 (TK-10 renal) of 1.52 µM and a TGI (TK-10 renal) of over 32.5 µM.
With NC(N)=NCCCS(=O)(=O)Nc1ccc(Nc2c3ccccc3nc3cc([N+](=O)[O-])ccc23)cc1 the TGI (SNB-19 CNS) was 28.8 µM, the TGI (HCC-2998 colon) was 44.1 µM and the TGI (NCI-H460 lung) was 33 µM. For the same molecule, the TGI (HT29 colon) was 55 µM, the TGI (U251 CNS) was 29.5 µM and the TGI (RPMI-8226 leukemia) was 66.6 µM. The TGI (SF-295 CNS) was 59 µM, the TGI (LOX IMVI melanoma) was over 75.7 µM and the TGI (COLO 205 colon) was 56.2 µM. It also gave a TGI (TK-10 renal) of over 84.5 µM.
Cc1ccc(CCCC(=O)O)cc1C gave a TGI (SNB-19 CNS) of over 100 µM, a TGI (NCI-H460 lung) of over 100 µM and a TGI (HT29 colon) of over 100 µM. It also gave a TGI (U251 CNS) of over 100 µM, a TGI (RPMI-8226 leukemia) of over 100 µM and a TGI (SF-295 CNS) of over 100 µM. The TGI (LOX IMVI melanoma) was over 100 µM and the TGI (TK-10 renal) was over 100 µM.
Work on N=C(N)c1ccc(-c2ccc(-c3ccccc3)o2)cc1 yielded a GI50 (SNB-19 CNS) of 2.54 µM, a TGI (SNB-19 CNS) of 6.83 µM and a GI50 (HCC-2998 colon) of 1.51 µM. The TGI (HCC-2998 colon) was 3.15 µM, the GI50 (NCI-H460 lung) was 1.93 µM and the TGI (NCI-H460 lung) was 3.65 µM. It also gave a GI50 (HT29 colon) of 2.01 µM, a TGI (HT29 colon) of 4.51 µM and a GI50 (RPMI-8226 leukemia) of 2.75 µM. It also gave a TGI (RPMI-8226 leukemia) of 7.29 µM, a GI50 (COLO 205 colon) of 1.66 µM and a TGI (COLO 205 colon) of 3.42 µM. It also gave a GI50 (TK-10 renal) of 1.89 µM and a TGI (TK-10 renal) of 3.73 µM.
O=C(c1no[n+]([O-])c1C(=O)c1csc2ccccc12)c1csc2ccccc12 showed a TGI (SNB-19 CNS) of 32.3 µM, a TGI (HCC-2998 colon) of 18.4 µM and a TGI (NCI-H460 lung) of 28.3 µM. The TGI (HT29 colon) was 13.7 µM, the TGI (U251 CNS) was 22.7 µM and the TGI (RPMI-8226 leukemia) was 1.95 µM. The TGI (SF-295 CNS) was 29 µM, the TGI (LOX IMVI melanoma) was 5.37 µM and the TGI (COLO 205 colon) was 9 µM. For the same molecule, the TGI (TK-10 renal) was 4.9 µM.
For CC(C)c1cccc(C(C)C)c1NC(=S)Nc1ccccc1, the TGI (SNB-19 CNS) was over 100 µM, the TGI (HCC-2998 colon) was over 100 µM and the TGI (NCI-H460 lung) was over 100 µM. It also gave a TGI (HT29 colon) of over 100 µM, a TGI (U251 CNS) of over 100 µM and a TGI (RPMI-8226 leukemia) of over 100 µM. For the same molecule, the TGI (SF-295 CNS) was over 100 µM, the TGI (LOX IMVI melanoma) was over 100 µM and the TGI (COLO 205 colon) was over 100 µM. It also gave a TGI (TK-10 renal) of over 100 µM.
In the case of N/C(=N/O)c1cn(C2OC(CO)C(O)C2O)c2ncnc(NO)c12 (stereo unspecified), the TGI (SNB-19 CNS) is reported as over 100 µM, the TGI (HCC-2998 colon) is reported as 7.12 µM and the TGI (NCI-H460 lung) is reported as 7.59 µM. For the same molecule, the TGI (HT29 colon) was over 100 µM, the TGI (U251 CNS) was 54.1 µM and the TGI (RPMI-8226 leukemia) was 1.86 µM. It also gave a TGI (SF-295 CNS) of 54.7 µM, a TGI (LOX IMVI melanoma) of 4.53 µM and a TGI (COLO 205 colon) of 0.623 µM. The TGI (TK-10 renal) was over 33.6 µM.
CSc1nc(NC2OC(CO)C(O)C(O)C2O)c(N)c(=O)n1C (stereo unspecified) was tested, and the TGI (SNB-19 CNS) was over 100 µM, the TGI (HCC-2998 colon) was over 100 µM and the TGI (NCI-H460 lung) was over 100 µM. It also gave a TGI (HT29 colon) of over 100 µM, a TGI (U251 CNS) of over 100 µM and a TGI (RPMI-8226 leukemia) of over 100 µM. It also gave a TGI (SF-295 CNS) of over 100 µM, a TGI (LOX IMVI melanoma) of over 100 µM and a TGI (COLO 205 colon) of over 100 µM.
For COc1cccc(/C=N/[N-]C(N)=O)c1[O-].[OH3+].[Zn+2], the TGI (SNB-19 CNS) was over 100 µM, the TGI (HCC-2998 colon) was over 100 µM and the TGI (NCI-H460 lung) was over 100 µM. It also gave a TGI (HT29 colon) of over 100 µM, a TGI (U251 CNS) of over 100 µM and a TGI (RPMI-8226 leukemia) of over 100 µM. It also gave a TGI (SF-295 CNS) of over 100 µM, a TGI (LOX IMVI melanoma) of over 100 µM and a TGI (COLO 205 colon) of over 100 µM. For the same molecule, the TGI (TK-10 renal) was over 100 µM.
With NC(=O)OCc1c(O)c2c(c(O)c1COC(N)=O)C(=O)C=CC2=O the TGI (HCC-2998 colon) was over 100 µM, the TGI (HT29 colon) was over 100 µM and the TGI (U251 CNS) was over 100 µM. For the same molecule, the TGI (RPMI-8226 leukemia) was over 100 µM, the TGI (SF-295 CNS) was over 100 µM and the TGI (COLO 205 colon) was over 100 µM. It also gave a TGI (TK-10 renal) of over 100 µM.
CCCCCCCCCCCCCCCc1ccc(C(=O)C[n+]2ccccc2)cc1 was tested, and the GI50 (HCC-2998 colon) was 1.27 µM, the TGI (HCC-2998 colon) was 2.55 µM and the GI50 (NCI-H460 lung) was 0.546 µM. For the same molecule, the TGI (NCI-H460 lung) was 1.78 µM, the GI50 (SF-295 CNS) was 0.653 µM and the TGI (SF-295 CNS) was 14.2 µM. It also gave a GI50 (LOX IMVI melanoma) of 0.348 µM, a TGI (LOX IMVI melanoma) of 1.19 µM and a GI50 (COLO 205 colon) of 0.475 µM. It also gave a TGI (COLO 205 colon) of 1.67 µM, a GI50 (TK-10 renal) of 1.12 µM and a TGI (TK-10 renal) of 2.72 µM.
Work on COc1ccc(C2C(Cl)C(=O)N2NC(=O)c2ccc(NC(C)=O)cc2)cc1OC (stereo unspecified) yielded a TGI (SNB-19 CNS) of over 100 µM, a TGI (HCC-2998 colon) of over 100 µM and a TGI (NCI-H460 lung) of over 100 µM. It also gave a TGI (HT29 colon) of over 100 µM, a TGI (U251 CNS) of over 100 µM and a TGI (RPMI-8226 leukemia) of over 100 µM. It also gave a TGI (SF-295 CNS) of over 100 µM, a TGI (COLO 205 colon) of over 100 µM and a TGI (TK-10 renal) of over 100 µM.
CC(C)=CCC/C(C)=C/CC/C(C)=C/C(O)c1ccccc1 (stereo unspecified) showed a TGI (SNB-19 CNS) of 35.3 µM, a TGI (NCI-H460 lung) of 35.3 µM and a TGI (HT29 colon) of 32.9 µM. The TGI (U251 CNS) was 33.5 µM, the TGI (RPMI-8226 leukemia) was 49.5 µM and the TGI (SF-295 CNS) was 33.8 µM. For the same molecule, the TGI (LOX IMVI melanoma) was 35.9 µM, the TGI (COLO 205 colon) was 35.6 µM and the TGI (TK-10 renal) was 88.4 µM.
